Measured values taken from PMC5392334, “Discovery and characterization of a novel irreversible EGFR mutants selective and potent kinase inhibitor CHMFL-EGFR-26 with a distinct binding mode” (Oncotarget, 2017).
Several values for one entry are separate records, joined by “and”; a condition that tells them apart may be missing. Equal entries are not always repeated.

Experiments:
[1] = test system: BaF3-FL-EGFR-del19; experiment: Anti-proliferation, BaF3 isogenic cell lines (CellTiter-Glo); assay type: cell-based; settings: Mus musculus, 72 hours, triplet testing
[2] = molecular target: T1, NDR1 (Homo sapiens, UniProt Q15208); experiment: KinomeScan; assay type: binding; settings: read-out: % control
T1 construct: purchased DiscoveRx KINOMEscan
T1 sequence (Q15208 whole entry): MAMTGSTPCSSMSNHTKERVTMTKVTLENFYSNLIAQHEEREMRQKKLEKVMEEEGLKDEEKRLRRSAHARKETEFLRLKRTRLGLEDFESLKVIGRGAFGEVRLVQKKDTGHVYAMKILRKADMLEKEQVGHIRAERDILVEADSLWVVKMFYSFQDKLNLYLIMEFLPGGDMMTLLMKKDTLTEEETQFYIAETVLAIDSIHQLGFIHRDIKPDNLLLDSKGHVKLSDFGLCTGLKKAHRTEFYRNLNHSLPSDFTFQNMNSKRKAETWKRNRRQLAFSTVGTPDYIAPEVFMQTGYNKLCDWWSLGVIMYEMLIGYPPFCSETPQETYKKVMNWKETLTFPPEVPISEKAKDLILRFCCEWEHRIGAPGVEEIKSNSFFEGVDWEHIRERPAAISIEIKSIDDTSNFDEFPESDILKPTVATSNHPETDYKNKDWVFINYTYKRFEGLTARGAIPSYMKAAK

[3] = molecular target: T2, ERBB3 (Homo sapiens, UniProt P21860); experiment: KinomeScan; assay type: binding; settings: read-out: % control
T2 construct: purchased DiscoveRx KINOMEscan

[4] = molecular target: T3, PKNB(M.tuberculosis) (Mycobacterium tuberculosis, UniProt P9WI81); experiment: KinomeScan; assay type: binding; settings: read-out: % control
T3 construct: purchased DiscoveRx KINOMEscan

[5] = molecular target: T4, SRMS (Homo sapiens, UniProt Q9H3Y6); experiment: KinomeScan; assay type: binding; settings: read-out: % control
T4 construct: purchased DiscoveRx KINOMEscan

[6] = molecular target: T5, INSR (Homo sapiens, UniProt P06213); experiment: KinomeScan; assay type: binding; settings: read-out: % control
T5 construct: purchased DiscoveRx KINOMEscan

[7] = molecular target: T6, PRKCI (Homo sapiens, UniProt P41743); experiment: KinomeScan; assay type: binding; settings: read-out: % control
T6 construct: purchased DiscoveRx KINOMEscan

[8] = molecular target: T7, RIOK3 (Homo sapiens, UniProt O14730); experiment: KinomeScan; assay type: binding; settings: read-out: % control
T7 construct: purchased DiscoveRx KINOMEscan

[9] = molecular target: T8, CDKL1 (Homo sapiens, UniProt Q00532); experiment: KinomeScan; assay type: binding; settings: read-out: % control
T8 construct: purchased DiscoveRx KINOMEscan

[10] = molecular target: T9, MAP3K3 (Homo sapiens, UniProt Q99759); experiment: KinomeScan; assay type: binding; settings: read-out: % control
T9 construct: purchased DiscoveRx KINOMEscan

[11] = molecular target: T10, CDK4-cyclinD1 (Homo sapiens, UniProt P11802); experiment: KinomeScan; assay type: binding; settings: read-out: % control
T10 construct: purchased DiscoveRx KINOMEscan

[12] = molecular target: T11, PIP5K2B (Homo sapiens, UniProt P78356); experiment: KinomeScan; assay type: binding; settings: read-out: % control
T11 construct: purchased DiscoveRx KINOMEscan

[13] = molecular target: T12, HIPK2 (Homo sapiens, UniProt Q9H2X6); experiment: KinomeScan; assay type: binding; settings: read-out: % control
T12 construct: purchased DiscoveRx KINOMEscan

[14] = molecular target: T13, EGFR(G719S) (Homo sapiens, UniProt P00533, G719S); experiment: KinomeScan; assay type: binding; settings: read-out: % control
T13 construct: purchased DiscoveRx KINOMEscan

[15] = molecular target: T14, BRAF (Homo sapiens, UniProt P15056); experiment: KinomeScan; assay type: binding; settings: read-out: % control
T14 construct: purchased DiscoveRx KINOMEscan

[16] = molecular target: T15, TYK2(JH2domain-pseudokinase) (Homo sapiens, UniProt P29597); experiment: KinomeScan; assay type: binding; settings: read-out: % control
T15 construct: TYK2(JH2domain-pseudokinase); purchased DiscoveRx KINOMEscan

[17] = test system: BaF3-FL-EGFR-L858R-T790M; experiment: Anti-proliferation, BaF3 isogenic cell lines (CellTiter-Glo); assay type: cell-based; settings: Mus musculus, 72 hours, triplet testing
[18] = molecular target: T16, PAK3 (Homo sapiens, UniProt O75914); experiment: KinomeScan; assay type: binding; settings: read-out: % control
T16 construct: purchased DiscoveRx KINOMEscan

[19] = molecular target: T17, TYK2(JH1domain-catalytic) (Homo sapiens, UniProt P29597); experiment: KinomeScan; assay type: binding; settings: read-out: % control
T17 construct: TYK2(JH1domain-catalytic); purchased DiscoveRx KINOMEscan
T17 sequence (P29597 871-1187 limits assumed): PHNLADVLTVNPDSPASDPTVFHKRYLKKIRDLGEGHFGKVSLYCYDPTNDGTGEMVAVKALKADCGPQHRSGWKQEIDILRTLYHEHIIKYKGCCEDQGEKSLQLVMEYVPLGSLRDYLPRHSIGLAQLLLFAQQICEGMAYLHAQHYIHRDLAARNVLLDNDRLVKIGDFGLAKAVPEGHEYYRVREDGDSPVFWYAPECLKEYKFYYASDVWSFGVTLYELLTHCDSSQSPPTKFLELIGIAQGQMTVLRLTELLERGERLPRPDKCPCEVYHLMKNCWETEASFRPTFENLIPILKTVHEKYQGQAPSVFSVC

[20] = molecular target: T18, PRKCE (Homo sapiens, UniProt Q02156); experiment: KinomeScan; assay type: binding; settings: read-out: % control
T18 construct: purchased DiscoveRx KINOMEscan

[21] = molecular target: T19, SRPK2 (Homo sapiens, UniProt P78362); experiment: KinomeScan; assay type: binding; settings: read-out: % control
T19 construct: purchased DiscoveRx KINOMEscan

[22] = molecular target: T20, MAP3K4 (Homo sapiens, UniProt Q9Y6R4); experiment: KinomeScan; assay type: binding; settings: read-out: % control
T20 construct: purchased DiscoveRx KINOMEscan
T20 sequence (Q9Y6R4 whole entry): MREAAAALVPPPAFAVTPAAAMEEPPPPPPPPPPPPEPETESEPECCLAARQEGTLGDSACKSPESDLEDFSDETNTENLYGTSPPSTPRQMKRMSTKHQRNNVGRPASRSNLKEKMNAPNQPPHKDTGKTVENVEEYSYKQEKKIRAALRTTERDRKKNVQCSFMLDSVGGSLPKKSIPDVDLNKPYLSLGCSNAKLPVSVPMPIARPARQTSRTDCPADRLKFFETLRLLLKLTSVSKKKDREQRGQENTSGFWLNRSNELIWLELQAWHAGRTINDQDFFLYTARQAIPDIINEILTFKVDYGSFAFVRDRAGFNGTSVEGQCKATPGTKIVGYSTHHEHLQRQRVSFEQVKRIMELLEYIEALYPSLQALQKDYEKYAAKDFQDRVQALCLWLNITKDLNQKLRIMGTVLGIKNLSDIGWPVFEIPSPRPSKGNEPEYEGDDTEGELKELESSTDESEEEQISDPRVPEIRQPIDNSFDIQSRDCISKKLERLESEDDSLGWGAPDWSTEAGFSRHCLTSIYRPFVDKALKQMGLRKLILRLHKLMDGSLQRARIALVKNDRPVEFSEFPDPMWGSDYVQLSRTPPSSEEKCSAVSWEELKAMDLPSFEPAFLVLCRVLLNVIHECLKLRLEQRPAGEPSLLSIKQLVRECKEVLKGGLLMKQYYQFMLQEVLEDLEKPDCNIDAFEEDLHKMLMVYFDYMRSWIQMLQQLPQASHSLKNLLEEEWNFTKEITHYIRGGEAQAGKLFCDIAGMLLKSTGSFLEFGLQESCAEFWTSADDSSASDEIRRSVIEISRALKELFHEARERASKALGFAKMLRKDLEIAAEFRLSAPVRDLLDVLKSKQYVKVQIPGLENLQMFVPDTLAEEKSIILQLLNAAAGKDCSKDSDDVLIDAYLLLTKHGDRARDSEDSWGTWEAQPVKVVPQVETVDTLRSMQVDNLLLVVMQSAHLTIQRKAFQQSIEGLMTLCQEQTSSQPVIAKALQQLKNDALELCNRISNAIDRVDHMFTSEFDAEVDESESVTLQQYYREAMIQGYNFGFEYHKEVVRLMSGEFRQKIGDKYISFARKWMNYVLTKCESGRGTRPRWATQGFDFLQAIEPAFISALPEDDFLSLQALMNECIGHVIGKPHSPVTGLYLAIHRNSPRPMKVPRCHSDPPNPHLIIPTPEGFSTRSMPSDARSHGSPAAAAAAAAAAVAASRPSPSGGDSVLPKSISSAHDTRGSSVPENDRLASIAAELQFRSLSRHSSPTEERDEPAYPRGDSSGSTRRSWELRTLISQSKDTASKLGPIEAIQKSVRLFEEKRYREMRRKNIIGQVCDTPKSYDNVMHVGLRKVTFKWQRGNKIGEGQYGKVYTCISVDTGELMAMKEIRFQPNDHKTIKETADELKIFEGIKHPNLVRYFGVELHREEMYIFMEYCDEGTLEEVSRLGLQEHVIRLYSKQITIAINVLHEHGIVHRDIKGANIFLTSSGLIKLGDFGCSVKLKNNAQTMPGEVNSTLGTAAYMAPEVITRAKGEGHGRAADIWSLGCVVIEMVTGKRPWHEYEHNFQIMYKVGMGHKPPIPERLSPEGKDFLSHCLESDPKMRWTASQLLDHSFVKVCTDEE

[23] = molecular target: EGFR(ErbB1) (Homo sapiens, UniProt P00533); experiment: SelectScreen biochemical assay
Chain of EGFR(ErbB1) (P00533 25-1210): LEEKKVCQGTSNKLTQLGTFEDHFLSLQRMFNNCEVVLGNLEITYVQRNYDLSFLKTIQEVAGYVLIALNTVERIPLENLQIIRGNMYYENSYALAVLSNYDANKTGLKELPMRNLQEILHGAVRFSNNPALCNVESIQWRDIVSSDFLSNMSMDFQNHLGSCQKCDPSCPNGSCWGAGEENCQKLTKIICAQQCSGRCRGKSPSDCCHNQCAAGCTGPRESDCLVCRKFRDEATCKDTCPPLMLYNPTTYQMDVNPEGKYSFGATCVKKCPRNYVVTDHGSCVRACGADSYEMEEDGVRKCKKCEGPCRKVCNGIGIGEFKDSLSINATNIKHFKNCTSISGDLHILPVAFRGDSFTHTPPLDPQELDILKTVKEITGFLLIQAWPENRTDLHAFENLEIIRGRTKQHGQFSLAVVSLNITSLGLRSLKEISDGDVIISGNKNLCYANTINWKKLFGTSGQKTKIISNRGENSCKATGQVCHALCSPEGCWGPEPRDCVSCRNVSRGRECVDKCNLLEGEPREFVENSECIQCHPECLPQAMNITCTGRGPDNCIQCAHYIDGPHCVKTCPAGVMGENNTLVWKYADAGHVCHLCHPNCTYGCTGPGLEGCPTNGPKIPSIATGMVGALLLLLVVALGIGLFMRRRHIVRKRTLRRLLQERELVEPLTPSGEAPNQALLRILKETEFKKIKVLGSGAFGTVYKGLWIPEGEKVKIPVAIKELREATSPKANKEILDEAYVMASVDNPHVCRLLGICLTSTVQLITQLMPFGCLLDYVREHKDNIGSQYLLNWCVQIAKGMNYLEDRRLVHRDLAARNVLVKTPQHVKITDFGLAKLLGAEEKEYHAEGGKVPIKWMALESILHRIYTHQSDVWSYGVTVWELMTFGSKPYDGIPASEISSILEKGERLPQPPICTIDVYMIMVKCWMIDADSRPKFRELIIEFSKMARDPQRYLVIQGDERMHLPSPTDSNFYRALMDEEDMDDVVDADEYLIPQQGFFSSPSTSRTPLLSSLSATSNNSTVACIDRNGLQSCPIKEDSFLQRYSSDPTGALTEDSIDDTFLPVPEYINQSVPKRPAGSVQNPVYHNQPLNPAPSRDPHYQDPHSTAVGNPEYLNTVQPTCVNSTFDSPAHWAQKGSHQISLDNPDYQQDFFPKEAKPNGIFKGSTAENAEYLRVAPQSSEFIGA
Excerpt: The enzymatic inhibition result of CHMFL-EGFR-26 was detected by SelectScreen techonology (Life Technologies).

[24] = molecular target: T21, ABL1(E255K)-phosphorylated (Homo sapiens, UniProt P00519, E255K); experiment: KinomeScan; assay type: binding; settings: read-out: % control
T21 construct: purchased DiscoveRx KINOMEscan

[25] = molecular target: T22, ASK1 (Homo sapiens, UniProt Q99683); experiment: KinomeScan; assay type: binding; settings: read-out: % control
T22 construct: purchased DiscoveRx KINOMEscan

[26] = test system: H1703 (EGFR wt); experiment: Anti-proliferation, NSCLC cell lines (CellTiter-Glo); assay type: cell-based; settings: Homo sapiens, NCI-H1703, 72 hours, triplet testing
Protocol: (§1) The human cancer cell lines H1975, HCC827, H2122, CHO, CHL and H1355 were purchased from the American Type Culture Collection (ATCC) (Manassas, VA, USA). PC9 cell line was purchased from the Sigma-Aldrich (St. Louis, MO, USA). A549, H3255 were purchased from Cobioer Biosciences CO., LTD (Nanjing, China). […] A549 and H1355 were cultured in F-12K Nutrient Mixture (kaighn's Modification) (Gibco, USA) with 10% FBS and supplemented with 2% L-glutamine and 1% pen/strep. H3255 was cultured in BEGM media (LONZA, USA) with 10% FBS and supplemented with 2% L-glutamine and 1% pen/strep.

[27] = test system: H2122 (EGFR wt); experiment: as above; assay type: cell-based; settings: Homo sapiens, NCI-H2122, 72 hours, triplet testing
Protocol: as §1

[28] = test system: H3255 (EGFRL858R); experiment: as above; assay type: cell-based; settings: Homo sapiens, NCI-H3255, 72 hours, triplet testing
Protocol: as §1

[29] = test system: H1355(EGFR wt); experiment: as above; assay type: cell-based; settings: Homo sapiens, NCI-H1355, 72 hours, triplet testing
Protocol: as §1

[30] = test system: HCC827 (EGFR del19); experiment: as above; assay type: cell-based; settings: Homo sapiens, 72 hours, triplet testing
Protocol: as §1

[31] = test system: PC-9 (EGFR del19); experiment: as above; assay type: cell-based; settings: Homo sapiens, 72 hours, triplet testing
Protocol: as §1

[32] = test system: A549 (EGFR wt); experiment: as above; assay type: cell-based; settings: Homo sapiens, 72 hours, triplet testing
Protocol: as §1

[33] = molecular target: T23, RET (Homo sapiens, UniProt P07949); experiment: KinomeScan; assay type: binding; settings: read-out: % control
T23 construct: purchased DiscoveRx KINOMEscan
T23 sequence (P07949 29-1114): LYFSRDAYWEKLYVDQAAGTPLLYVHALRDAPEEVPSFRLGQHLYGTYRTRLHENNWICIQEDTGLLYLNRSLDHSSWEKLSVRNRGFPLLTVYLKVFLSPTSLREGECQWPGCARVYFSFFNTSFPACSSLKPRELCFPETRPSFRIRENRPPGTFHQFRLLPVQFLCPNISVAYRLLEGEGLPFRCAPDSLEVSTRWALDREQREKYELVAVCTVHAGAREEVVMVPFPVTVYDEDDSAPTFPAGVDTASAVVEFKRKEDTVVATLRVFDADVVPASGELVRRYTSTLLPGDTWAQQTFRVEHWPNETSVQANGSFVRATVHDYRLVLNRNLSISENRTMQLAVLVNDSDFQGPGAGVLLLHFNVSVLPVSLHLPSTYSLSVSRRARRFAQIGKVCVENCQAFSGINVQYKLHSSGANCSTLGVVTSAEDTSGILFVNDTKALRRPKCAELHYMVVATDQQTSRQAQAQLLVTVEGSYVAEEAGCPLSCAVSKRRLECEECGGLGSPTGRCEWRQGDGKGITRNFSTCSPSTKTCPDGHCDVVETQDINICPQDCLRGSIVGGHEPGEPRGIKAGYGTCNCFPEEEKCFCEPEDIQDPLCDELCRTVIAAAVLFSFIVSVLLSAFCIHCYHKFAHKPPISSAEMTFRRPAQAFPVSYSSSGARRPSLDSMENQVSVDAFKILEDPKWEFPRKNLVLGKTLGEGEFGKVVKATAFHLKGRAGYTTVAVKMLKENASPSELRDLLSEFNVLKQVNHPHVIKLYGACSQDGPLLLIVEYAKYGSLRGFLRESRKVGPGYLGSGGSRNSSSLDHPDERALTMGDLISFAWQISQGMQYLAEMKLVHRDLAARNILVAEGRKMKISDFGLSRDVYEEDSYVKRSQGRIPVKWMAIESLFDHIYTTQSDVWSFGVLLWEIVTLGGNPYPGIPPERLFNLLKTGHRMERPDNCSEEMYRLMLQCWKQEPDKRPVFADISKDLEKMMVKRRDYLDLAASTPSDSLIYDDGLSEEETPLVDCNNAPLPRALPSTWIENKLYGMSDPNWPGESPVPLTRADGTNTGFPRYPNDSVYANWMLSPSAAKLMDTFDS

[34] = molecular target: T24, MKNK2 (Homo sapiens, UniProt Q9HBH9); experiment: KinomeScan; assay type: binding; settings: read-out: % control
T24 construct: purchased DiscoveRx KINOMEscan

[35] = molecular target: T25, IKK-alpha (Homo sapiens, UniProt O15111); experiment: KinomeScan; assay type: binding; settings: read-out: % control
T25 construct: purchased DiscoveRx KINOMEscan

[36] = molecular target: T26, MAP4K3 (Homo sapiens, UniProt Q8IVH8); experiment: KinomeScan; assay type: binding; settings: read-out: % control
T26 construct: purchased DiscoveRx KINOMEscan

[37] = molecular target: T27, PRKG2 (Homo sapiens, UniProt Q13237); experiment: KinomeScan; assay type: binding; settings: read-out: % control
T27 construct: purchased DiscoveRx KINOMEscan

[38] = molecular target: T28, MST3 (Homo sapiens, UniProt Q9Y6E0); experiment: KinomeScan; assay type: binding; settings: read-out: % control
T28 construct: purchased DiscoveRx KINOMEscan
T28 sequence (Q9Y6E0 whole entry): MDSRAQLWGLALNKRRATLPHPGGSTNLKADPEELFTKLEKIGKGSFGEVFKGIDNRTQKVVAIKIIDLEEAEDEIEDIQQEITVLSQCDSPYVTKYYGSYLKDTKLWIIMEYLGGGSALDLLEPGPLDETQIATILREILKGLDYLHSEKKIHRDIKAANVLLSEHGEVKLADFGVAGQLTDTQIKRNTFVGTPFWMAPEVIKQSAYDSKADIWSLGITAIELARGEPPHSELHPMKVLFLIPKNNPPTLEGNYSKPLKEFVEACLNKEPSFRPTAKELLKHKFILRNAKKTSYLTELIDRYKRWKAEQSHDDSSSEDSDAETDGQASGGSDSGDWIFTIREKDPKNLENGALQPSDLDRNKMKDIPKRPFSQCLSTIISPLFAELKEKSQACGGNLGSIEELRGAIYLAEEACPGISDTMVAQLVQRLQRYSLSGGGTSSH

## C=CC(=O)N1CCC[C@@H](n2nc(-c3ccc(OCc4cccc(C)n4)c(Cl)c3)c3c(N)ncnc32)C1 [CHMFL-EGFR-26]
[1]
  GI50: 13 nM
[2]
  remaining binding at 1 µM: 71%
[3]
  remaining binding at 1 µM: 89%
[4]
  remaining binding at 1 µM: 100%
[5]
  remaining binding at 1 µM: 11%
[6]
  remaining binding at 1 µM: 100%
[7]
  remaining binding at 1 µM: 100%
[8]
  remaining binding at 1 µM: 82%
[9]
  remaining binding at 1 µM: 100%
[10]
  remaining binding at 1 µM: 67%
[11]
  remaining binding at 1 µM: 100%
[12]
  remaining binding at 1 µM: 100%
[13]
  remaining binding at 1 µM: 100%
[14]
  remaining binding at 1 µM: 18%
[15]
  remaining binding at 1 µM: 85%
[16]
  remaining binding at 1 µM: 97%
[17]
  GI50: 6 nM
[18]
  remaining binding at 1 µM: 62%
[19]
  remaining binding at 1 µM: 100%
[20]
  remaining binding at 1 µM: 99%
[21]
  remaining binding at 1 µM: 100%
[22]
  remaining binding at 1 µM: 86%
[23]
  IC50: 71 nM and 71.4 nM
[24]
  remaining binding at 1 µM: 98%
[25]
  remaining binding at 1 µM: 97%
[26]
  GI50: 7700 nM
[27]
  GI50: 3500 nM
[28]
  GI50: 27 nM
[29]
  GI50: 8100 nM
[30]
  GI50: 36 nM
[31]
  GI50: 35 nM
[32]
  GI50: 5400 nM
[33]
  remaining binding at 1 µM: 95%
[34]
  remaining binding at 1 µM: 91%
[35]
  remaining binding at 1 µM: 98%
[36]
  remaining binding at 1 µM: 97%
[37]
  remaining binding at 1 µM: 100%
[38]
  remaining binding at 1 µM: 39%
